{
  "source": "patent US5698411A",
  "about": "“Method for determining activity of enzymes in metabolically active whole cells” (priority 1995, dated 1997)",
  "type_in_all_cases": "cell-based, human",
  "key": {"lymphocytes [1]": {"system": "lymphocytes", "assay": "peptidase activity in leukemia and non-leukemia patients, lymphocytes (Table 6C)", "design": "unit not given here", "text": "(§1) Artificial intelligence was used to analyze data of cellular enzyme functions, and determine normal and disease states. Peptidases were used to distinguish leukemia from non-leukemia (output pattern). For input patterns lymphocyte and granulocyte cell types were used with aminopeptidases, cathepsins and dipeptidylpeptidase enzyme activities. In this Example, illustrated in Tables 6A-6C, three normals and three leukemia patients were used as known output patterns for the neural network to learn (in practice, the larger the learning set the more accurate unknown prediction will be). Unknowns were then presented to the learned algorithm as shown in the test case examples. Clinical diagnosis was confirmed by physicians. The trained neural network was able to correctly classify the leukemia from the non-leukemia."}, "granulocytes [2]": {"system": "granulocytes", "assay": "peptidase activity in leukemia and non-leukemia patients, granulocytes (Table 6C)", "design": "unit not given here", "text": "as §1"}, "lymphocytes [3]": {"system": "lymphocytes", "assay": "aberrant enzyme activities in febrile children, lymphocytes (Table 7)"}, "monocytes": {"system": "monocytes", "assay": "aberrant enzyme activities in febrile children, monocytes (Table 7)"}, "granulocytes [4]": {"system": "granulocytes", "assay": "aberrant enzyme activities in febrile children, granulocytes (Table 7)"}, "[5]": {"system": "metabolically active whole cell", "assay": "substrate panel in normals and HIV + patients, TB infection (Table 4)", "design": "unit not given here", "protocol": "A panel of assay compounds are assembled consisting of Ala-aminopeptidase and Lys-aminopeptidase, Dipeptidyl peptidase IV (Ala-Ala)2 rhodamine 110 and Cathepsin D to indicate possible TB infection in AIDS related cases.\nA panel Of enzymatic substrates is performed consisting of Ala-aminopeptidase and Lys-aminopeptidase, Dipeptidyl peptidase IV (Ala-Ala)2 rhodamine 110 and Cathepsin D to indicate possible TB infection in AIDS related cases."}},
  "note": "Values joined by “and” are separate entries in the source; they are usually repeats but may differ in a detail not shown here. Equal values may be shown once.",
  "data": [
    {"smiles": "NC(=O)CC[C@H](N)C(=O)N[C@@H](CO)C(=O)Nc1ccc2c(c1)Oc1cc(NC(=O)[C@H](CO)NC(=O)[C@@H](N)CCC(N)=O)ccc1C21OC(=O)c2ccccc21", "note": "[QS, (H-L-Gln--Ser)2 Rho 110 .2TFA]", "values": [
      {"measurement": "enzyme activity, Lymphs", "setting": "lymphocytes [1]; J4 11/21/91 acute leuk.", "result": 0.05},
      {"measurement": "enzyme activity, Lymphs", "setting": "lymphocytes [1]; J4 12/2/91 A L", "result": 0.01},
      {"measurement": "enzyme activity, Lymphs", "setting": "lymphocytes [1]; J4 12/3/91 acute leuk.", "result": 0.06},
      {"measurement": "enzyme activity, Lymphs", "setting": "lymphocytes [1]; J5 11/27/91 A M L", "result": 0.07},
      {"measurement": "enzyme activity, Lymphs", "setting": "lymphocytes [1]; J19 11/27/91 C L L", "result": 0.06},
      {"measurement": "enzyme activity, Lymphs", "setting": "lymphocytes [1]; J22 12/2/91 A M L", "result": 0.02},
      {"measurement": "enzyme activity, Lymphs", "setting": "lymphocytes [1]; J22 12/9/91 A M L", "result": 0.02},
      {"measurement": "enzyme activity, Lymphs", "setting": "lymphocytes [1]; N191 normal", "result": 0.02},
      {"measurement": "enzyme activity, Lymphs", "setting": "lymphocytes [1]; N192 normal", "result": 0.03},
      {"measurement": "enzyme activity, Lymphs", "setting": "lymphocytes [1]; N193 normal", "result": 0.03},
      {"measurement": "enzyme activity, Lymphs", "setting": "lymphocytes [1]; N194 normal", "result": 0.02},
      {"measurement": "enzyme activity, Lymphs", "setting": "lymphocytes [1]; N195 normal", "result": 0.04},
      {"measurement": "enzyme activity, Lymphs", "setting": "lymphocytes [1]; N197 normal", "result": 0.06},
      {"measurement": "enzyme activity, Lymphs", "setting": "lymphocytes [1]; N199 normal", "result": 0.02},
      {"measurement": "enzyme activity, Lymphs", "setting": "lymphocytes [1]; N200 normal", "result": 0.01},
      {"measurement": "enzyme activity, Lymphs", "setting": "lymphocytes [1]; N201 normal", "result": 0.02},
      {"measurement": "enzyme activity, Lymphs", "setting": "lymphocytes [1]; N202 normal", "result": 0.01},
      {"measurement": "enzyme activity, Lymphs", "setting": "lymphocytes [1]; N206 normal", "result": 0.04},
      {"measurement": "enzyme activity, Lymphs", "setting": "lymphocytes [1]; P68 tachycardia", "result": 0.02},
      {"measurement": "enzyme activity, Lymphs", "setting": "lymphocytes [1]; P69 pancreatic CA", "result": 0.31},
      {"measurement": "enzyme activity, Lymphs", "setting": "lymphocytes [1]; P70 cirrhosis/hemobilia", "result": 0.04},
      {"measurement": "enzyme activity, Lymphs", "setting": "lymphocytes [1]; P71 ac. pyelonephritis", "result": 0.05},
      {"measurement": "enzyme activity, Grans", "setting": "granulocytes [2]; J4 11/21/91 acute leuk.", "result": 0.22},
      {"measurement": "enzyme activity, Grans", "setting": "granulocytes [2]; J4 12/2/91 A L", "result": 0.44},
      {"measurement": "enzyme activity, Grans", "setting": "granulocytes [2]; J4 12/3/91 acute leuk.", "result": 0.19},
      {"measurement": "enzyme activity, Grans", "setting": "granulocytes [2]; J22 12/2/91 A M L", "result": 0.10},
      {"measurement": "enzyme activity, Grans", "setting": "granulocytes [2]; J22 12/9/91 A M L", "result": 0.24},
      {"measurement": "enzyme activity, Grans", "setting": "granulocytes [2]; N191 normal", "result": 0.19},
      {"measurement": "enzyme activity, Grans", "setting": "granulocytes [2]; N192 normal", "result": 0.15},
      {"measurement": "enzyme activity, Grans", "setting": "granulocytes [2]; N193 normal", "result": 0.14},
      {"measurement": "enzyme activity, Grans", "setting": "granulocytes [2]; N194 normal", "result": 0.07},
      {"measurement": "enzyme activity, Grans", "setting": "granulocytes [2]; N195 normal", "result": 0.21},
      {"measurement": "enzyme activity, Grans", "setting": "granulocytes [2]; N197 normal", "result": 0.24},
      {"measurement": "enzyme activity, Grans", "setting": "granulocytes [2]; N199 normal", "result": 0.05},
      {"measurement": "enzyme activity, Grans", "setting": "granulocytes [2]; N200 normal", "result": 0.06},
      {"measurement": "enzyme activity, Grans", "setting": "granulocytes [2]; N201 normal", "result": 0.09},
      {"measurement": "enzyme activity, Grans", "setting": "granulocytes [2]; N202 normal", "result": 0.08},
      {"measurement": "enzyme activity, Grans", "setting": "granulocytes [2]; N206 normal", "result": 0.27},
      {"measurement": "enzyme activity, Grans", "setting": "granulocytes [2]; P68 tachycardia", "result": 0.33},
      {"measurement": "enzyme activity, Grans", "setting": "granulocytes [2]; P69 pancreatic CA", "result": 0.37},
      {"measurement": "enzyme activity, Grans", "setting": "granulocytes [2]; P70 cirrhosis/hemobilia", "result": 0.19},
      {"measurement": "enzyme activity, Grans", "setting": "granulocytes [2]; P71 ac. pyelonephritis", "result": 0.51},
      {"measurement": "aberrant enzyme activity, LYMPHS", "setting": "lymphocytes [3]; P92 Adenitis", "result": ".smallcircle."},
      {"measurement": "aberrant enzyme activity, LYMPHS", "setting": "lymphocytes [3]; P97 Pyelonephritis", "result": ".smallcircle."},
      {"measurement": "aberrant enzyme activity, LYMPHS", "setting": "lymphocytes [3]; P103 Viral Syndrome", "result": ".smallcircle."},
      {"measurement": "aberrant enzyme activity, MONOS", "setting": "monocytes; P92 Adenitis", "result": ".smallcircle."},
      {"measurement": "aberrant enzyme activity, MONOS", "setting": "monocytes; P97 Pyelonephritis", "result": ".smallcircle."},
      {"measurement": "aberrant enzyme activity, GRANS", "setting": "granulocytes [4]; P97 Pyelonephritis", "result": ".smallcircle."}
    ]},
    {"smiles": "C[C@@H](O)[C@H](N)C(=O)N1CCC[C@H]1C(=O)Nc1ccc2c(c1)Oc1cc(NC(=O)[C@@H]3CCCN3C(=O)[C@@H](N)[C@@H](C)O)ccc1C21OC(=O)c2ccccc21", "note": "[THR--PRO*]", "values": [
      {"measurement": "MEAN DELTA FL", "setting": "[5]; HIV + PATIENTS", "result": 10.2},
      {"measurement": "MEAN DELTA FL", "setting": "[5]; NORMALS", "result": 17.3}
    ]},
    {"smiles": "NC(=O)CC[C@H](N)C(=O)N[C@@H](CO)C(=O)Nc1ccc2c(c1)Oc1cc(NC(=O)[C@H](CO)NC(=O)[C@@H](N)CCC(N)=O)ccc1C21OC(=O)c2ccccc21", "note": "(relative stereo) [GLN--SER*]", "values": [
      {"measurement": "MEAN DELTA FL", "setting": "[5]; HIV + PATIENTS", "result": "13.7 and 12.7"},
      {"measurement": "MEAN DELTA FL", "setting": "[5]; NORMALS", "result": "11.9 and 6.1"}
    ]},
    {"smiles": "CC(C)C[C@H](N)C(=O)NCC(=O)Nc1ccc2c(c1)Oc1cc(NC(=O)CNC(=O)[C@@H](N)CC(C)C)ccc1C21OC(=O)c2ccccc21", "note": "[LG]", "values": [
      {"measurement": "enzyme activity, Lymphs", "setting": "lymphocytes [1]; J4 11/21/91 acute leuk.", "result": 0.16},
      {"measurement": "enzyme activity, Lymphs", "setting": "lymphocytes [1]; J4 12/2/91 A L", "result": 0.18},
      {"measurement": "enzyme activity, Lymphs", "setting": "lymphocytes [1]; J4 12/3/91 acute leuk.", "result": 0.19},
      {"measurement": "enzyme activity, Lymphs", "setting": "lymphocytes [1]; J5 11/27/91 A M L", "result": 0.23},
      {"measurement": "enzyme activity, Lymphs", "setting": "lymphocytes [1]; J19 11/27/91 C L L", "result": 0.02},
      {"measurement": "enzyme activity, Lymphs", "setting": "lymphocytes [1]; J22 12/2/91 A M L", "result": 0.02},
      {"measurement": "enzyme activity, Lymphs", "setting": "lymphocytes [1]; J22 12/9/91 A M L", "result": 0.61},
      {"measurement": "enzyme activity, Lymphs", "setting": "lymphocytes [1]; N199 normal", "result": 0.85},
      {"measurement": "enzyme activity, Lymphs", "setting": "lymphocytes [1]; P68 tachycardia", "result": 0.78},
      {"measurement": "enzyme activity, Lymphs", "setting": "lymphocytes [1]; P69 pancreatic CA", "result": 2.00},
      {"measurement": "enzyme activity, Lymphs", "setting": "lymphocytes [1]; P70 cirrhosis/hemobilia", "result": 0.79},
      {"measurement": "enzyme activity, Lymphs", "setting": "lymphocytes [1]; P71 ac. pyelonephritis", "result": 0.68},
      {"measurement": "enzyme activity, Grans", "setting": "granulocytes [2]; J4 11/21/91 acute leuk.", "result": 0.85},
      {"measurement": "enzyme activity, Grans", "setting": "granulocytes [2]; J4 12/2/91 A L", "result": 0.79},
      {"measurement": "enzyme activity, Grans", "setting": "granulocytes [2]; N200 normal", "result": 3.40},
      {"measurement": "enzyme activity, Grans", "setting": "granulocytes [2]; N202 normal", "result": 2.70},
      {"measurement": "enzyme activity, Grans", "setting": "granulocytes [2]; P70 cirrhosis/hemobilia", "result": 2.20},
      {"measurement": "enzyme activity, Grans", "setting": "granulocytes [2]; P71 ac. pyelonephritis", "result": 4.00},
      {"measurement": "aberrant enzyme activity, LYMPHS", "setting": "lymphocytes [3]; P92 Adenitis", "result": ".smallcircle."},
      {"measurement": "aberrant enzyme activity, LYMPHS", "setting": "lymphocytes [3]; P97 Pyelonephritis", "result": ".smallcircle."},
      {"measurement": "aberrant enzyme activity, LYMPHS", "setting": "lymphocytes [3]; P102 UTI", "result": ".smallcircle."},
      {"measurement": "aberrant enzyme activity, LYMPHS", "setting": "lymphocytes [3]; P103 Viral Syndrome", "result": ".smallcircle."},
      {"measurement": "aberrant enzyme activity, MONOS", "setting": "monocytes; P92 Adenitis", "result": ".smallcircle."},
      {"measurement": "aberrant enzyme activity, MONOS", "setting": "monocytes; P96 Viral Syndrome", "result": ".smallcircle."},
      {"measurement": "aberrant enzyme activity, MONOS", "setting": "monocytes; P97 Pyelonephritis", "result": ".smallcircle."},
      {"measurement": "aberrant enzyme activity, MONOS", "setting": "monocytes; P101 Fever -- Unknown Origin", "result": ".smallcircle."},
      {"measurement": "aberrant enzyme activity, MONOS", "setting": "monocytes; P103 Viral Syndrome", "result": ".smallcircle."},
      {"measurement": "aberrant enzyme activity, GRANS", "setting": "granulocytes [4]; P92 Adenitis", "result": ".smallcircle."},
      {"measurement": "aberrant enzyme activity, GRANS", "setting": "granulocytes [4]; P96 Viral Syndrome", "result": ".smallcircle."},
      {"measurement": "aberrant enzyme activity, GRANS", "setting": "granulocytes [4]; P97 Pyelonephritis", "result": ".smallcircle."},
      {"measurement": "aberrant enzyme activity, GRANS", "setting": "granulocytes [4]; P101 Fever -- Unknown Origin", "result": ".smallcircle."},
      {"measurement": "aberrant enzyme activity, GRANS", "setting": "granulocytes [4]; P102 UTI", "result": ".smallcircle."}
    ]}
  ]
}
